The text below walks through data of US20210388012A1, “METHODS AND COMPOSITIONS FOR PRODRUG FORMS OF SPECTINOMYCIN AND SPECTINAMIDE ANALOGS” (priority 2018, published 2021).

The nature of data set [1]: in vitro. In kind it is in vitro ADME. Particulars: human plasma, 37° C., read-out: Plasma Stability (Human) t½ (converted). As to the method:
(§1) LC-MS Method 2. Chromatographic separation was performed on an Acquity UPLC BEH C18 1.7 μm, 2.1×50 mm column (Waters Corporation, Milford, Mass.) or a Luna Omega 1.6 μm C18, 2.1×50 mm column (Phenomenex, Torrance, Calif.) using an Acquity ultra performance liquid chromatography system. Data were acquired using Masslynx v. 4.1 and analyzed using the Openlynx software suite. This was coupled to an Acquity photodiode array detector, which acquired UV data from 210-400 nm. The flow was then split, with half directed to an evaporative light scattering detector (ELSD) and half to an SQ mass spectrometer. The total flow rate was 1 mL/min. The sample injection volume was 10 μL. The UPLC column was maintained at 60° C. and the gradient program with either basic mobile phase (A1, 10 mM ammonium bicarbonate in MilliQ H2O; B1, 0.1% formic acid in acetonitrile) or formic mobile phase (A1, 0.1% formic acid in MilliQ H2O; B1, 0.1% formic acid in acetonitrile) based on the compounds' physical and chemical properties. The mass spectrometer was operated in positive-ion mode with electrospray ionization. The conditions were as follows; capillary voltage 3.4 kV, cone voltage 30 V, source temperature 130° C., desolvation temperature 400° C., desolvation gas 800 L/hr, cone gas 100 L/hr. A full scan range from m/z=110-1000 in 0.2 s was used to acquire MS data. The ELSD-drift tube temperature was set at 52° C.
Plasma stability was determined after incubation in human plasma for various incubation time, i.e., incubation times of 0, 3, 24, and 48 hour were used. DMSO stock solutions of test compounds were prepared at 10 mM concentration. 1.8 μL of each test compound was each added directly to 1.8 mL of human plasma to get the final concentration of 10 μM. This compound/matrix was mixed and 70 μL was transferred to 4 time points plates (each in triplicate wells). […] The plasma stability was evaluated via the half-life from least-squares fit of the multiple time points based on first-order kinetics.

Data set [2] is described as follows: Metabolic stability, human liver microsomal degradation. It counts as in vitro ADME. Particulars: human liver microsomes; read-out: Metabolic Stability (Human) t½ (converted). As to the method: as §1
The stability of compounds to human liver microsomal degradation, i.e., metabolic stability, was determined as described previously (see North, E. J., et al, Bioorg. Med. Chem. (2013) 21(9):2587-2599) and the rate of degradation was monitored by LC-MS analysis using multiple sampled time points as described herein above in LC-MS Method 2. Metabolic stability was evaluated via the half-life from least squares fit of the concentration remaining at the time points based on first-order kinetics.
On the technique in general: Liver microsomes are a subcellular fraction often used to study metabolism.

The subject of data set [3] is M. tuberculosis Erdman (TMCC107). Description: Murine model of acute TB infection. In kind it is in vivo. The following applies: BALB/c mice, subcutaneous injection 400 mg/kg daily, 12 consecutive days.
Data set [4] can be described thus: Single ascending maximum tolerated dose study in rat. In kind it is in vivo. Particulars: female Sprague-Dawley rats, 5 second IV bolus. The method, then: Several compounds were assessed in single ascending maximum tolerated studies. The compounds assessed were 1810; 3408, a prodrug form of compound 1810; 1599, a chloro homologue of compound 1810; and gentamicin, an antimicrobial associated with ototoxicity. The study was carried out in female Sprague-Dawley rats (n=3 per group). All the drug solutions were prepared in water and PLASMA-LYTE A (50:50; […] was obtained from Baxter Healthcare Corporation, Deerfield, Ill.). Each group of rats were fasted overnight with access to water aJ libitum and a fixed volume (2 mL) of drug-containing solution was administered via the jugular vein catheter. Food was withheld for 3 h post dosing. Different phases of the study were classified on five different speeds of i.v, administration; Phase 1: 5 sec, Phase 2: 30 sec, Phase 3: 5 min, Phase 4: 15 min, Phase 5: 30 min. In the first and second phases, a set of predefined dose levels: 10, 25, 50, 75, 100, 150, 300, 350, 400, 450 and 500 mg/kg. Escalation to the next higher dose was conditional upon absence of signs of acute toxicity following the immediate lower dose over a 24 h period. All animals were monitored by visual inspection focused on focus on changes in skin, fur, eyes, and also respiratory, circulatory, autonomic and central nervous systems, along with somatomotor activity and behavior pattern, including tremors, convulsions, salivation, diarrhea, lethargy, sleep and coma. A dose level was deemed an MTD if […] of acute toxicity were observed and that dose was chosen for the second phase of the study where the process was repeated to determine a toxic dose. For third, fourth and fifth phases, dosing solution was infused by a Instech tethering system (Instech Laboratories Inc., Plymouth Meeting, Pa.) where the animal is freely moving within its cage, the catheter connection is held in place by a vascular access harness and a swivel system, and the drug administration is performed via a Harvard Apparatus programmable syringe pump. After dosing, the tether was removed immediately after completion of the infusion and the catheter was flushed with (100 μL) PlasmaLyte A. Surviving animals from the previous dose with no signs of toxicity were re-used in either phases of these studies upon allowing a one day drug washout period.

By MTD is commonly meant the largest dose that counted as tolerated. As to `CN[C@@H]1[C@H](O)[C@H](NC)[C@H]2O[C@]3(O)[C@H](O[C@@H]2[C@H]1O)O[C@H](C)C[C@H]3NC(=O)Cc1ccc(OP(=O)(O)O)cn1` [Compound 3408, 6-(2-oxo-2-(((2R,4R,4a5,5aR,6S,7S,8R,9S,9aR,10aS)-4a,7,9-trihydroxy-2-methyl-6,8-bis(methylamino)decahydro-2H-benzo[b]pyrano[2,3-e][1,4]dioxin-4-yl)amino)ethyl)pyridin-3-yl dihydrogen phosphate], the half-life at 10 µM in data set [1] is < 5 min. In addition, the half-life in data set [2] was < 5 min. The “Efficacy in mouse model of acute tuberculosis infection (lung CFU, FIG. 1)” value in data set [3] is reported as “similarly active”. For the same molecule, the maximal tolerated dose (MTD) in data set [4] is listed as >500 mg/kg. Moreover, the maximal tolerated dose (MTD) at 24 h in data set [4] (female, Sprague-Dawley, rat, in vivo, iv, read-out: MTD) is > 500 mg/kg.
